Converted amounts (≈) assume the structure as drawn. Where two headings read alike, the source gives them in different places. Where a SMILES comes first, the peptide text is derived from it. The star is where a group is joined. Myristoyl = CCCCCCCCCCCCCC(=O)*; Lauroyl = CCCCCCCCCCCC(=O)*; Decanoyl = CCCCCCCCCC(=O)*; Octanoyl = CCCCCCCC(=O)*; Hexanoyl = CCCCCC(=O)*
Tests used:
[1] = RP-HPLC retention time (hydrophobicity); format: physicochemical; conditions: stated to reliably reflect the hydrophobicity in aqueous solution, assessed and provided by GenScript
Description: GenScript (Piscataway, NJ, USA) carried out the custom synthesis of USCLs by using high efficient solid phase peptide synthesis. The fatty acid was conjugated to the N-terminus of the peptide using the same procedure followed to attach protected amino acids to the growing peptide chain for synthesis. The purity (>90%), sequence and molecular weight of USCLs were assessed and provided by GenScript using RP-HPLC and ESI-MS. USCLs were dissolved in sterile water or DMSO at 10 mg/mL, according to manufacturer's indications.

P. aeruginosa ATCC 27853 = format: cell-based, Pseudomonas aeruginosa
Excerpt: (§1) Bacteria used in this study were Escherichia coli ATCC 25922 and O18K1H7, Staphylococcus aureus ATCC 25923 and ATCC 29213, Pseudomonas aeruginosa ATCC 27853, Staphylococcus epidermidis ATCC 12228, Enterococcus faecalis ATCC 29212, Bacillus subtilis DSM 4181, Listeria monocytogenes DSM 20600, Salmonella typhimurium ATCC 14028, Acinetobacter baumannii ATCC 19606 and 17978, Klebsiella pneumoniae ATCC 13883 and 700603, Stenotrophomonas maltophilia ATCC 13637 and Burkholderia cenocepacia J2315. In addition to reference strains, a clinical isolate of E. faecalis vancomycin-resistant (VREF, strain M), and three clinical isolates of S. aureus methicillin-resistant (MRSA, strains E, G and 11), kindly provided by Dr. Lucilla Dolzani, were used. All MRSA strains are resistant to GEN, IPM, OXA, PEN, CIP and CEF; the S. aureus E strain is also resistant to CLI and ERY. VREF strain is resistant to AMK, ATM, GEN, NET, PEN, TEC, TET, TOB and VAN.
(§2) For the assays, overnight bacterial cultures were diluted 1:30 in fresh Mueller-Hinton Broth (MHB, Difco) and incubated at 37°C with shaking for approximately 2h.
(§3) The antimicrobial activity of USCLs was determined by the Minimum Inhibitory Concentration (MIC) assay, according to the guidelines of CLSI (Clinical & Laboratory Standards Institute) and described in [30, 31]. Briefly, the assays were performed in 96-well microplates in appropriate broth (MHB or SAB). […] For bacteria, a mid-log phase bacterial suspension at 2.5 × 10^5 CFU/mL in MHB was used, and the microplates incubated at 37°C for 24h. The fungal suspension in SAB broth was used at a final concentration of 5 × 10^4 cells/mL. Microplates were then incubated at 30°C for 48h. The MIC value was taken as the lowest concentration of USCLs resulting in the complete inhibition of visible bacterial or fungal growth after appropriate incubation time. Results derive from at least three independent experiments carried out in duplicate.

S. aureus ATCC 25923 = format: cell-based, Staphylococcus aureus
Excerpt: as §1, §2, §3

E. coli ATCC 25922 = format: cell-based, Escherichia coli
Excerpt: as §1, §2, §3

B. cenocepacia J2315 = format: cell-based, Burkholderia cenocepacia; conditions: 48 h
Excerpt: as §1, §2
as §3, with “For bacteria, a mid-log phase bacterial suspension at 2.5 × 10^5 CFU/mL in MHB was used, and the microplates incubated at 37°C for 24h.” left out

[2] = test system: S. maltophilia ATCC 13637; format: cell-based, Stenotrophomonas maltophilia; conditions: ATCC 13637, 48 h
Excerpt: as §1, §2
as §3, with “For bacteria, a mid-log phase bacterial suspension at 2.5 × 10^5 CFU/mL in MHB was used, and the microplates incubated at 37°C for 24h.” left out

C. albicans SC 5314 = format: cell-based, Candida albicans; conditions: SC 5314, 48 h
Description: (§4) Fungal strains used were Candida albicans ATCC 90029 and SC5314. Fungi were grown on Sabouraud dextrose (SAB, Difco) agar plates at 30°C for 48h. The initial fungal inoculum was prepared by picking and suspending five colonies in 5 mL of sterile PBS.
as §3

C. albicans ATCC 90029 = format: cell-based, Candida albicans; conditions: ATCC 90029, 48 h
Description: as §4, §3

E. faecalis ATCC 29212 = format: cell-based, Enterococcus faecalis; conditions: ATCC 29212, 24 h
Excerpt: as §1, §2, §3

[3] = test system: E. faecalis M (VREF clinical isolate); format: cell-based, Enterococcus faecalis; conditions: M (VREF clinical isolate, 24 h)
Excerpt: as §1, §2, §3

K. pneumoniae ATCC 13883 = format: cell-based, Klebsiella pneumoniae; conditions: ATCC 13883, 24 h
Excerpt: as §1, §2, §3

[4] = test system: K. pneumoniae ATCC 700603; format: cell-based, Klebsiella pneumoniae; conditions: ATCC 700603, 24 h
Excerpt: as §1, §2, §3

[5] = test system: S. aureus 11 (MRSA clinical isolate); format: cell-based, Staphylococcus aureus; conditions: 11 ( clinical isolate, 24 h)
Excerpt: as §1, §2, §3

[6] = test system: S. aureus G (MRSA clinical isolate); format: cell-based, Staphylococcus aureus; conditions: G ( clinical isolate, 24 h)
Excerpt: as §1, §2, §3

[7] = test system: S. aureus E (MRSA clinical isolate); format: cell-based, Staphylococcus aureus; conditions: E ( clinical isolate, 24 h)
Excerpt: as §1, §2, §3

E. coli O18K1H7 = format: cell-based, Escherichia coli; conditions: O18K1H7, 24 h
Excerpt: as §1, §2, §3

[8] = test system: S. typhimurium ATCC 14028; format: cell-based, Salmonella typhimurium; conditions: ATCC 14028, 24 h
Excerpt: as §1, §2, §3

B. subtilis DSM 4181 = format: cell-based, Bacillus subtilis; conditions: DSM 4181, 24 h
Excerpt: as §1, §2, §3

[9] = MHB, 2.5 × 10^5 CFU/mL, 24h at 37°C, at least three independent experiments in duplicate

Molecule	Retention time [1] [min]	MIC (P. aeruginosa ATCC 27853; ATCC 27853, 24 h) [µg/mL]	MIC (S. aureus ATCC 25923; ATCC 25923, 24 h)	MIC (E. coli ATCC 25922; ATCC 25922, 24 h)	other results
CCCCCCCCCCCC(=O)N[C@@H](CCCNC(=N)N)C(=O)N[C@@H](C)C(=O)N[C@@H](Cc1c[nH]c2ccccc12)C(=O)N[C@@H](CCCNC(=N)N)C(N)=O [Lp-A, Lau-RAWR-NH2] (Lauroyl-RAWR-NH2)	18.931	25 (≈ 32.5 µM)	6.25 µg/mL (≈ 8.13 µM)	–	–
CCCCCCCCCCCC(=O)N[C@@H](CCCNC(=N)N)C(=O)N[C@@H](CS)C(=O)N[C@@H](Cc1c[nH]c2ccccc12)C(=O)N[C@@H](CCCNC(=N)N)C(N)=O [Lp-C, Lau-RCWR-NH2] (Lauroyl-RCWR-NH2)	22.492	200 (≈ 250 µM)	50 µg/mL (≈ 62.4 µM)	200 µg/mL (≈ 250 µM)	–
CCCCCCCCCC(=O)N[C@@H](CCCNC(=N)N)C(=O)N[C@@H](Cc1ccccc1)C(=O)N[C@@H](Cc1c[nH]c2ccccc12)C(=O)N[C@@H](CCCNC(=N)N)C(N)=O [Lp-F^Dec, Dec-RFWR-NH2] (Decanoyl-RFWR-NH2)	22.639	50 (≈ 61.2 µM)	–	25 µg/mL (≈ 30.6 µM)	–
CCCCCC(=O)N[C@@H](CCCNC(=N)N)C(=O)N[C@@H](Cc1ccccc1)C(=O)N[C@@H](Cc1c[nH]c2ccccc12)C(=O)N[C@@H](CCCNC(=N)N)C(N)=O [Lp-F^Hex, Hex-RFWR-NH2] (Hexanoyl-RFWR-NH2)	18.675	–	–	–	MIC (P. aeruginosa ATCC 27853; [9]): >400 µg/mL; MIC (S. aureus ATCC 25923; MHB, 2.5 × 10^5 CFU/mL, 24h at 37°C, at least three independent experiments in duplicate, two values when replicates differed by one well): >400 µg/mL; MIC (E. coli ATCC 25922; [9]): >400 µg/mL
CCCCCCCCCCCCCC(=O)N[C@@H](CCCNC(=N)N)C(=O)N[C@@H](Cc1ccccc1)C(=O)N[C@@H](Cc1c[nH]c2ccccc12)C(=O)N[C@@H](CCCNC(=N)N)C(N)=O [Lp-F^Myr, Myr-RFWR-NH2] (Myristoyl-RFWR-NH2)	26.654	50 (≈ 57.3 µM)	6.25 µg/mL (≈ 7.16 µM)	–	–
CCCCCCCC(=O)N[C@@H](CCCNC(=N)N)C(=O)N[C@@H](Cc1ccccc1)C(=O)N[C@@H](Cc1c[nH]c2ccccc12)C(=O)N[C@@H](CCCNC(=N)N)C(N)=O [Lp-F^Oct, Oct-RFWR-NH2] (Octanoyl-RFWR-NH2)	17.974	100 (≈ 127 µM)	100 µg/mL (≈ 127 µM)	–	–
CCCCCCCCCCCC(=O)N[C@@H](CCCNC(=N)N)C(=O)NCC(=O)N[C@@H](Cc1c[nH]c2ccccc12)C(=O)N[C@@H](CCCNC(=N)N)C(N)=O [Lp-G, Lau-RGWR-NH2] (Lauroyl-RGWR-NH2)	18.415	50 (≈ 66.2 µM)	6.25 µg/mL (≈ 8.28 µM)	25 µg/mL (≈ 33.1 µM)	–
CCCCCCCCCCCC(=O)N[C@@H](CCCNC(=N)N)C(=O)N[C@@H](Cc1c[nH]cn1)C(=O)N[C@@H](Cc1c[nH]c2ccccc12)C(=O)N[C@@H](CCCNC(=N)N)C(N)=O [Lp-H, Lau-RHWR-NH2] (Lauroyl-RHWR-NH2)	21.476	100 (≈ 120 µM)	6.25 µg/mL (≈ 7.48 µM)	25 µg/mL (≈ 29.9 µM)	–
CCCCCCCCCCCC(=O)N[C@@H](CCCNC(=N)N)C(=O)N[C@@H](CC(C)C)C(=O)N[C@@H](Cc1c[nH]c2ccccc12)C(=O)N[C@@H](CCCNC(=N)N)C(N)=O [Lp-L, Lau-RLWR-NH2] (Lauroyl-RLWR-NH2)	23.079	25 (≈ 30.8 µM)	–	25 µg/mL (≈ 30.8 µM)	–
CCCCCCCCCCCC(=O)N[C@@H](CCCNC(=N)N)C(=O)N[C@@H](CCCNC(=N)N)C(=O)N[C@@H](Cc1c[nH]c2ccccc12)C(=O)N[C@@H](CCCNC(=N)N)C(N)=O [Lp-R, Lau-RRWR-NH2] (Lauroyl-RRWR-NH2)	21.651	25 (≈ 29.3 µM)	3.125 µg/mL (≈ 3.66 µM)	12.5 µg/mL (≈ 14.6 µM)	MIC (B. cenocepacia J2315): 50 µg/mL (≈ 58.5 µM); MIC [2]: 12.5 µg/mL (≈ 14.6 µM); MIC (C. albicans SC 5314): 50 µg/mL (≈ 58.5 µM); MIC (C. albicans ATCC 90029): 1.56 µg/mL (≈ 1.83 µM); MIC (E. faecalis ATCC 29212): 6.25 µg/mL (≈ 7.32 µM); MIC [3]: 12.5 µg/mL (≈ 14.6 µM); MIC (K. pneumoniae ATCC 13883): >100 µg/mL; MIC [4]: 100 µg/mL (≈ 117 µM); MIC [5]: 3.125 µg/mL (≈ 3.66 µM); MIC [6]: 3.125 µg/mL (≈ 3.66 µM); MIC [7]: 3.125 µg/mL (≈ 3.66 µM); MIC (E. coli O18K1H7): 25 µg/mL (≈ 29.3 µM); MIC [8]: 100 µg/mL (≈ 117 µM); MIC (B. subtilis DSM 4181): 1.56 µg/mL (≈ 1.83 µM)
CCCCCCCCCCCC(=O)N[C@@H](CCCNC(=N)N)C(=O)N[C@@H](CO)C(=O)N[C@@H](Cc1c[nH]c2ccccc12)C(=O)N[C@@H](CCCNC(=N)N)C(N)=O [Lp-S, Lau-RSWR-NH2] (Lauroyl-RSWR-NH2)	16.117	25 (≈ 31.8 µM)	6.25 µg/mL (≈ 7.96 µM)	25 µg/mL (≈ 31.8 µM)	–
CCCCCCCCCCCC(=O)N[C@@H](CCCNC(=N)N)C(=O)N[C@H](C(=O)N[C@@H](Cc1c[nH]c2ccccc12)C(=O)N[C@@H](CCCNC(=N)N)C(N)=O)C(C)C [Lp-V, Lau-RVWR-NH2] (Lauroyl-RVWR-NH2)	19.317	–	6.25 (6.25) μg/mL	12.5 (12.5) μg/mL	–
Lau-RFWR-NH2 [Lp-F^Lau]	23.592	–	–	–	–

Reference: article PMC6383929, “Design, antimicrobial activity and mechanism of action of Arg-rich ultra-short cationic lipopeptides” (PLoS ONE, 2019)
